According to patent US20240270745A1, “ISOQUINOLINE ALKALOID COMPOUND, AND PREPARATION METHOD THEREFOR AND USE THEREOF” (SHANGHAI INSTITUTE OF MATERIA MEDICA, CHINESE ACADEMY OF …, priority 2021, published 2024):
pIC50: −log10 of the molar value.

What was measured:
TRESK (KCNK18) = target: T1, TRESK (KCNK18) (Homo sapiens, UniProt Q7Z418); settings: in neurons; read-out: half-effective dose for inhibition of TRESK channels; cited from earlier work
T1 sequence (Q7Z418 1-384): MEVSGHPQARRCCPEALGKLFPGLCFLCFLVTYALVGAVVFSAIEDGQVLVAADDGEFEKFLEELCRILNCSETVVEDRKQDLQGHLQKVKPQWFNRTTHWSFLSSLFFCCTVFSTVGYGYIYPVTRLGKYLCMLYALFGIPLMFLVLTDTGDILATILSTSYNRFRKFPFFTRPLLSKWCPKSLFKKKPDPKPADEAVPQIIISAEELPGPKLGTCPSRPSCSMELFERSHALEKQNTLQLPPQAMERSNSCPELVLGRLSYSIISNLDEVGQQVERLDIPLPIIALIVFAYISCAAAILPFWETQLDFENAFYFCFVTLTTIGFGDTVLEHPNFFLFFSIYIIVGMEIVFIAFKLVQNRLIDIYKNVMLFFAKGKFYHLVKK

[1] = tested on: TASK1/TASK3 (KCNK3/KCNK9); settings: in neurons; read-out: half-effective dose for inhibition of TASK1/TASK3 channels; cited from earlier work
hippocampal neurons = test: Spontaneous firing of cultured hippocampal neurons (patch clamp); format: cell-based, SD rats; settings: 10 μM, FIG. 1 A and B
Method: (§1) Whole-cell patch clamp recording was performed through a digital-to-analog converter, the Digidata 1440A (Axon CNS), and a patch clamp amplifier, the Axon patch 700B (Molecular Devices), and the borosilicate glass electrode used in the manual patch clamp experiment was pulled by a Sutter-P1000 electrode puller (Sutter) with a resistance about 3 MΩ. The bath solution was continuously perfused in speed of about 2 mL/min using a BPS perfusion system.
Enzyme and termination solutions with the same concentration were prepared with PBS. 90% DMEM/F12 supplemented with 10% FBS, neuron culture medium (2% B-27, 1% penicillin and streptomycin mixture, Neurobasal-A supplemented with 0.5 mM 1% GlutaMAX), and enzyme and termination solutions (all purchased from Gibco) were preheated in advance. The slides were coated in a 24-well plate in advance with 20 μg/mL polylysine. All operations were performed in a biological safety cabinet. 3 newly born SD rats that were 1-3 days old were taken out the hippocampus according to the above method. The hippocampus was cut into pieces with microdissecting scissors and digested for 8 minutes in the enzyme solution, which was slightly shaken every 2-3 minutes to make the digestion even. […] The suspension was counted on a cell counter, and adjusted to a final concentration of 10^5 cells/mL. […]

[2] = tested on: dorsal root ganglion (DRG) neurons; test: Evoked action potential firing in dorsal root ganglion neurons (whole-cell patch clamp); format: cell-based, C57BL/6 mouse; settings: 10 μM; 200 pA, 500 ms current stimulation; FIG. 1 C and D
Text: (§2) A 4- to 6-week old C57BL/6 mouse (Shanghai Slack Experimental Animal Co., Ltd.) was used for acute isolation of dorsal root ganglion neurons. First, the mouse was sacrificed by breaking the neck, and the surface skin was disinfected with 75% alcohol. The skin was cut from the neck to the buttocks, and the spine from the neck to the waist was cut, and placed in a pre-cooled phosphate buffer (PBS) (Hyclone Company) after excess muscles and blood clots were removed. The spine was cut longitudinally along the midline, and the white spinal cord and blood clots in the middle were removed by ophthalmic tweezers to expose the intervertebral foramen. The dorsal root ganglia were taken out by fine forceps, wherein the large ganglia at the waist should be stripped of their fibrous connections. Then the ganglia were cut into small pieces with microdissection scissors, added to 1 mL of a mixture of collagenase (1 mg/mL) and trypsin (0.25 mg/mL) (Sigma-Aldrich Company) for digestion for 15 min. Then a DMEM/F12 culture medium (Gibco Company) supplemented with 10% fetal calf serum was added thereto to terminate the digestion and dilute the resultant. The cells were pipetted repeatedly, and large tissue blocks were filtered out with a 70 μM cell filter. The remaining liquid was inoculated into a glass slide pre-coated with poly-lysine (Sigma-Aldrich), and cultured in an incubator at 5% CO2 and 37° C. […]

[3] = tested on: IK current in DRG neurons; test: Delayed inward rectifier potassium current (IK) in DRG neurons; format: cell-based, C57BL/6 mouse
Text: as §2, with “min.” for “min. Then a DMEM/F12 culture medium (Gibco Company) supplemented with 10% fetal calf serum was added thereto to terminate the digestion and dilute the resultant. The cells were pipetted repeatedly, and large tissue blocks were filtered out with a 70 μM cell filter. The remaining liquid was inoculated into a glass slide pre-coated with poly-lysine (Sigma-Aldrich), and cultured in an incubator at 5% CO2 and 37° C.”
(§3) The data were processed through Clampfit 10.2, and imported into an Excel table for statistics, and then sorted and analyzed for their significant differences through GraphPad Prim5 software. […] All electrophysiological experiment data were expressed as mean±standard error (mean±S.E.M.).

[4] = tested on: IA current in DRG neurons; test: Transient outward potassium current (IA) in DRG neurons; format: cell-based, C57BL/6 mouse; settings: whole-cell patch clamp; IA = total minus IK; 3 μM and 10 μM in FIG. 2
Text: as §2, with “min.” for “min. Then a DMEM/F12 culture medium (Gibco Company) supplemented with 10% fetal calf serum was added thereto to terminate the digestion and dilute the resultant. The cells were pipetted repeatedly, and large tissue blocks were filtered out with a 70 μM cell filter. The remaining liquid was inoculated into a glass slide pre-coated with poly-lysine (Sigma-Aldrich), and cultured in an incubator at 5% CO2 and 37° C.”
as §3

[5] = tested on: IK current of hippocampal neurons; test: Delayed inward rectifier potassium current (IK) in hippocampal neurons; format: cell-based, SD rats; settings: 1, 3 and 10 μM, FIG. 3
Method: as §1
(§4) The cell were clamped at a holding voltage of −50 mV, hyperpolarized to −110 mV, and then directly depolarized to 40 mV after 600 ms to record the whole cell potassium current (ITotal). To record the delayed […] rectifier potassium current (IK), the cells were first depolarized to −50 mV, maintained for 50 ms, and then depolarized to 40 mV. 10 μM HJ-70 was administered by perfusion to detect drug efficacy, and 5 mM TEA was administered as a positive control. […]
as §3

[6] = tested on: IA current of hippocampal neurons; test: Transient outward potassium current (IA) in hippocampal neurons; format: cell-based, SD rats; settings: 1, 3 and 10 μM, FIG. 3
Method: as §1
as §4, with “mV.” for “mV. 10 μM HJ-70 was administered by perfusion to detect drug efficacy, and 5 mM TEA was administered as a positive control.”
as §3

[7] = tested on: sodium current in hippocampal neurons; test: Sodium current in hippocampal neurons; format: cell-based, SD rats; settings: 10 μM; membrane potential clamped at −90 mV
Method: as §1
9 mg of protease (type XXIII, Sigma) was weighed in advance, 5 mg of bovine serum albumin (BSA, Shanghai Sangon) and 5 mg of trypsin inhibitor (Sigma-Aldrich) were weighed, and 3 mg/mL and 5 mg/mL enzyme and termination solutions were respectively prepared with a dissociation solution, and incubated at 32° C. water bath. 2 SD rats that were 1-7 days old (Shanghai Slack Experimental Animal Co., Ltd.) were decapitated and cut the cortex and skull to take out the complete brain, which was divided into two parts along the midline of the brain, and the hippocampus was located in the temporal lobe of the brain. The temporal lobe cortex was removed to expose the hippocampal gyrus for dissection. Then the hippocampus tissue was slightly moistened with the dissociation solution, and cut into thin slices transversely with a razor blade. […]

Kv2.1 channel = target: T2, Kv2.1 channel (Homo sapiens, UniProt Q14721); test: Kv2.1 channel current, transiently expressed in CHO-K1 cells (patch clamp); format: cell-based; settings: 10 μM, FIG. 5 A and B
T2 construct: expressed in transfected cells; host or cells: CHO-K1 cells (ATCC), transient co-transfection with EGFP plasmid at 9:1
T2 sequence (Q14721 1-858): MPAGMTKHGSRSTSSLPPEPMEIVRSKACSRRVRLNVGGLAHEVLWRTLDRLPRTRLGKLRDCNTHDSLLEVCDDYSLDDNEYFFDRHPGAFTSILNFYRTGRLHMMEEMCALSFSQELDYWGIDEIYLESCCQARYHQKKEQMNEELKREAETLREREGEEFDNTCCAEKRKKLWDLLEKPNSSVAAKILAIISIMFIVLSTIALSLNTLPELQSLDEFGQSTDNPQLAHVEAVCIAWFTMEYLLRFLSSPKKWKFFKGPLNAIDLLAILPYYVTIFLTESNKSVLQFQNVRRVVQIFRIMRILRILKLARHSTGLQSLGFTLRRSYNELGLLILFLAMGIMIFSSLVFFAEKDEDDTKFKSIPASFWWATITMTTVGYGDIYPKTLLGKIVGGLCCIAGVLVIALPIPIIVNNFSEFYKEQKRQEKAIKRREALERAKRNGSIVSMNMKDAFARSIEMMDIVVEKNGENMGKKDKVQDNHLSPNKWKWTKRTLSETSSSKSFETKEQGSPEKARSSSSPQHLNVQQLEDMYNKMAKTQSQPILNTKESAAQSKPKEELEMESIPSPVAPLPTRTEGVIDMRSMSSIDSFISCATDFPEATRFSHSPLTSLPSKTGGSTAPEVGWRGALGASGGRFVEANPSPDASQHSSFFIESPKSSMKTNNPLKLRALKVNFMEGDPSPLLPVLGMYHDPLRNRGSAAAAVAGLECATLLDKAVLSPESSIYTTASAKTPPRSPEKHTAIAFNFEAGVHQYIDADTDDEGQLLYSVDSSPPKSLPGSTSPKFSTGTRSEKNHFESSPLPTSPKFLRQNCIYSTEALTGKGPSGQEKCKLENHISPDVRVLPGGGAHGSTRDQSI
Text: (§5) First, TRESK plasmid (a kind gift from Professor Min LI of Johns Hopkins University) and Kv2.1 plasmid (a kind gift from Professor Min LI of Johns Hopkins University) were each co-transfected into CHO-K1 cells (ATCC) with green fluorescent protein EGFP plasmid (a kind gift from Professor Jia LI of SHANGHAI INSTITUTE OF MATERIA MEDICA, CHINESE ACADEMY OF SCIENCES) at a ratio of 9:1, and the cells with green fluorescence were selected under a fluorescence microscope to perform the experiments. The cells were clamped at −70 m V, first hyperpolarized to −130 mV, given a ramp depolarization stimulus to 20 mV, maintained for 100 ms, and then hyperpolarized to 0 mV to record the potassium channel current. 10 μM HJ-70 was administered by perfusion to test the drug efficacy thereof.

TRESK channel = target: T3, TRESK channel (Homo sapiens, UniProt Q7Z418); test: TRESK channel current, transiently expressed in CHO-K1 cells (patch clamp); format: cell-based
T3 construct: expressed in transfected cells; host or cells: CHO-K1 cells (ATCC), transient co-transfection with EGFP plasmid at 9:1
T3 sequence (Q7Z418 1-384): T1 sequence (Q7Z418 1-384)
Text: as §5

[8] = tested on: formaldehyde-induced inflammatory pain; test: Formalin-induced mouse inflammatory pain model; format: in vivo; settings: mice, intraperitoneal injection 30 minutes before 1% formaldehyde; 60 minutes observation
Method: A 10% formaldehyde solution was diluted 10 times to prepare a 1% formaldehyde solution. 5% DMSO, 5% Tween-80 and 90% normal saline (a 0.9% NaCl solution) were used to prepare solutions of HJ-70 in 100 mg/kg and 30 mg/kg. Each mouse was administered at a dose of 0.2 mL/10 g at 30 minutes before the experiment, and then 20 μL of 1% formaldehyde solution was injected into the sole of the foot through a microsampling needle to create a formalin model. The number of licking of hind paws, flicking of hind paws, and paw lifting, and the time of paw licking and prolonged paw lifting were recorded within 60 minutes. Paw licking was scored as 3, paw flicking was scored as 2, and paw lifting was scored as 1. The pain behavior score and time were calculated to determine the analgesic activity of HJ-70.

Compound	pIC50 (TRESK (KCNK18))	pIC50 [1]	effect on spontaneous firing of cultured hippocampal neurons (hippocampal neurons)	effect on evoked action potential firing frequency of DRG [2]	reversibility of IK current inhibition after washout ([3]; DRG neurons, washout, FIG. 2 G)	inhibition of IK current in DRG neurons ([3]; whole-cell patch clamp, 3 μM and 10 μM in FIG. 2)	effect on IA current in DRG neurons [4]	inhibition of IK current of hippocampal neurons [5]	effect on IA current of hippocampal neurons [6]	effect on sodium current in hippocampal neurons [7]	inhibition of Kv2.1 channel-mediated currents (Kv2.1 channel)	inhibition of TRESK channel current (TRESK channel; 10 μM, CHO-K1 cells, FIG. 5 C and D)	inhibitory activity on TRESK (K2P) compared with hydroxy-α-sanshool (TRESK channel; comparison with reported half-effective dose of hydroxy-α-sanshool)	pain behavioral response induced by plantar injection of formalin (licking time, pain score) [8]
C/C=C/C=C/C=C\CC/C=C/C(=O)NCC(C)(C)O [hydroxy-α-sanshool]	~4.30	~4.30	–	–	–	–	–	–	–	–	–	–	–	–
O=c1c2ccccc2nc2n1CCc1c-2n(CCCO)c2ccccc12 [HJ-70, N-13-n-propanol rutaecarpine]	–	–	significantly inhibit	significantly inhibited	completely eluted	dose-dependently inhibited	no significant effect	reversibly and dose-dependently inhibited	without affecting	no effect	completely inhibited	almost completely inhibited	stronger than that of hydroxy-α-sanshool	dose-dependently alleviate
